Assay results as given in patent US7666890B2, “Synthesis and herbicidal activity of 1- (2-substituted benzo[d]thiazol-5-yl)-1H-1,2,4-triazol-5(4H)-one derivatives” (Huazhong Normal University, priority 2007, dated 2010).

How the values were obtained:
Assay in all cases: Test of herbicidal activities (greenhouse pot method)
Format in all cases: in vivo
Settings in all cases: single dose 300 g ai./h, treated before/after germination, 15 days later, greenhouse pot
Brassica juncea = test system: Brassica juncea
Method: (§1) Garden soil was collected from regions where no pesticide is used and mixed uniformly with mountain soil and organic humus soil at a volume ratio of 1:1:1.
(§2) Multiple flowerpots each having a diameter of 9.5 cm and a depth of 8 cm were filled with the soil mixture to 3/4 volume. After water was added to the soil and the soil was completely wet, seeds of three grass weeds and three broadleaf weeds were inserted into the flowerpots (10-15 seeds for each weed). After seeding, the seeds were covered with fine oil mixed with sand and having a thickness of 1-3 cm. After the soil absorbed enough water and became saturated, excess water at the bottom of the flowerpot was drained, and the seeds were placed in a greenhouse for growth.
(§3) The weeds were watered every day so as to keep relative humidity of the soil at approximately 80%, growing temperature of 15-30° C., and air humidity above 50%. As the grass weeds grew to a 2-leaf stage and the broadleaf weeds was in a leaf period, spraying operation […] was performed on the stems and leafs. Planting before germination was performed before spraying. Soil processing was performed before the seeds of the weeds emerged.
(§4) Six target weeds comprising three grass weeds: Echinochloa crusgalli, Digiatria sanguinalis, Setaria viridis, along with three broadleaf weeds: Brassica juncea, Amaranthus retroflexus, Chenopodium album were treated before/after germination using a so-called “greenhouse pot” method with a single dose. A treating dose was 300 g ai./h. The process was repeated three times, and a blank control was used.
(§5) A 3WPSHZ-500 type automatic spraying tower with a spraying area of 0.132 m^2, a spray volume of 10 mL, working pressure of 0.2 MPa, and a liquid volume of 40% of maximum was used. After treatment, the weeds were placed in a greenhouse at a temperature of 15-30° C. Reaction symptoms of the weeds were regularly observed, and 15 days later, five reaction levels were determined according to the following inhibition intervals: 90≦A≦100%; 80≦B<90%, 60≦C<80%; 50≦D<60%, E<50%.

Digiatria sanguinalis = test system: Digiatria sanguinalis
Method: as §1, §2, §3, §4, §5

Chenopodium album = test system: Chenopodium album
Method: as §1, §2, §3, §4, §5

Amaranthus retroflexus = test system: Amaranthus retroflexus
Method: as §1, §2, §3, §4, §5

Setaria viridis = test system: Setaria viridis
Method: as §1, §2, §3, §4, §5

Echinochloa crusgalli = test system: Echinochloa crusgalli
Method: as §1, §2, §3, §4, §5

SMILES: Cc1nn(-c2cc3nc(SCc4ccc(F)cc4)sc3cc2F)c(=O)n1C(F)F [Compound 20]
- Herbicidal activity Brassica juncea (inhibition level) (Brassica juncea): B (80 ≦ B < 90%)
- Herbicidal activity Digiatria sanguinalis (inhibition level) (Digiatria sanguinalis): C (60 ≦ C < 80%)
- Herbicidal activity Chenopodium album (inhibition level) (Chenopodium album): B (80 ≦ B < 90%)
- Herbicidal activity Amaranthus retroflexus (inhibition level) (Amaranthus retroflexus): A (90 ≦ A ≦ 100%)
- Herbicidal activity Setaria viridis (inhibition level) (Setaria viridis): B (80 ≦ B < 90%)
- Herbicidal activity Echinochloa crusgalli (inhibition level) (Echinochloa crusgalli): C (60 ≦ C < 80%)

SMILES: Cc1nn(-c2cc3nc(SCc4cccc(Br)c4)sc3cc2F)c(=O)n1C(F)F [Compound 21]
- Herbicidal activity Brassica juncea (inhibition level) (Brassica juncea): B (80 ≦ B < 90%)
- Herbicidal activity Digiatria sanguinalis (inhibition level) (Digiatria sanguinalis): B (80 ≦ B < 90%)
- Herbicidal activity Chenopodium album (inhibition level) (Chenopodium album): B (80 ≦ B < 90%)
- Herbicidal activity Amaranthus retroflexus (inhibition level) (Amaranthus retroflexus): A (90 ≦ A ≦ 100%)
- Herbicidal activity Setaria viridis (inhibition level) (Setaria viridis): E (E < 50%)
- Herbicidal activity Echinochloa crusgalli (inhibition level) (Echinochloa crusgalli): C (60 ≦ C < 80%)

SMILES: Cc1nn(-c2cc3nc(SCc4ccc(Br)cc4F)sc3cc2F)c(=O)n1C(F)F [Compound 22]
- Herbicidal activity Brassica juncea (inhibition level) (Brassica juncea): D (50 ≦ D < 60%)
- Herbicidal activity Digiatria sanguinalis (inhibition level) (Digiatria sanguinalis): C (60 ≦ C < 80%)
- Herbicidal activity Chenopodium album (inhibition level) (Chenopodium album): D (50 ≦ D < 60%)
- Herbicidal activity Amaranthus retroflexus (inhibition level) (Amaranthus retroflexus): B (80 ≦ B < 90%)
- Herbicidal activity Setaria viridis (inhibition level) (Setaria viridis): C (60 ≦ C < 80%)
- Herbicidal activity Echinochloa crusgalli (inhibition level) (Echinochloa crusgalli): C (60 ≦ C < 80%)

SMILES: Cc1nn(-c2cc3nc(SCc4cccc(Cl)c4)sc3cc2F)c(=O)n1C(F)F [Compound 23]
- Herbicidal activity Brassica juncea (inhibition level) (Brassica juncea): E (E < 50%)
- Herbicidal activity Digiatria sanguinalis (inhibition level) (Digiatria sanguinalis): C (60 ≦ C < 80%)
- Herbicidal activity Chenopodium album (inhibition level) (Chenopodium album): D (50 ≦ D < 60%)
- Herbicidal activity Amaranthus retroflexus (inhibition level) (Amaranthus retroflexus): A (90 ≦ A ≦ 100%)
- Herbicidal activity Setaria viridis (inhibition level) (Setaria viridis): D (50 ≦ D < 60%)
- Herbicidal activity Echinochloa crusgalli (inhibition level) (Echinochloa crusgalli): C (60 ≦ C < 80%)

SMILES: Cc1nn(-c2cc3nc(SCc4ccccc4Cl)sc3cc2F)c(=O)n1C(F)F [Compound 24]
- Herbicidal activity Brassica juncea (inhibition level) (Brassica juncea): C (60 ≦ C < 80%)
- Herbicidal activity Digiatria sanguinalis (inhibition level) (Digiatria sanguinalis): B (80 ≦ B < 90%)
- Herbicidal activity Chenopodium album (inhibition level) (Chenopodium album): B (80 ≦ B < 90%)
- Herbicidal activity Amaranthus retroflexus (inhibition level) (Amaranthus retroflexus): A (90 ≦ A ≦ 100%)
- Herbicidal activity Setaria viridis (inhibition level) (Setaria viridis): D (50 ≦ D < 60%)
- Herbicidal activity Echinochloa crusgalli (inhibition level) (Echinochloa crusgalli): C (60 ≦ C < 80%)

SMILES: Cc1nn(-c2cc3nc(SCc4ccc(Cl)cc4)sc3cc2Br)c(=O)n1C(F)F [Compound 25]
- Herbicidal activity Brassica juncea (inhibition level) (Brassica juncea): C (60 ≦ C < 80%)
- Herbicidal activity Digiatria sanguinalis (inhibition level) (Digiatria sanguinalis): C (60 ≦ C < 80%)
- Herbicidal activity Chenopodium album (inhibition level) (Chenopodium album): E (E < 50%)
- Herbicidal activity Amaranthus retroflexus (inhibition level) (Amaranthus retroflexus): E (E < 50%)
- Herbicidal activity Setaria viridis (inhibition level) (Setaria viridis): B (80 ≦ B < 90%)
- Herbicidal activity Echinochloa crusgalli (inhibition level) (Echinochloa crusgalli): D (50 ≦ D < 60%)

SMILES: Cc1nn(-c2cc3nc(SCc4ccc(Br)cc4)sc3cc2Br)c(=O)n1C(F)F [Compound 26]
- Herbicidal activity Brassica juncea (inhibition level) (Brassica juncea): B (80 ≦ B < 90%)
- Herbicidal activity Digiatria sanguinalis (inhibition level) (Digiatria sanguinalis): C (60 ≦ C < 80%)
- Herbicidal activity Chenopodium album (inhibition level) (Chenopodium album): A (90 ≦ A ≦ 100%)
- Herbicidal activity Amaranthus retroflexus (inhibition level) (Amaranthus retroflexus): B (80 ≦ B < 90%)
- Herbicidal activity Setaria viridis (inhibition level) (Setaria viridis): C (60 ≦ C < 80%)
- Herbicidal activity Echinochloa crusgalli (inhibition level) (Echinochloa crusgalli): D (50 ≦ D < 60%)

SMILES: Cc1nn(-c2cc3nc(SCc4ccc(F)cc4)sc3cc2Br)c(=O)n1C(F)F [Compound 27]
- Herbicidal activity Brassica juncea (inhibition level) (Brassica juncea): A (90 ≦ A ≦ 100%)
- Herbicidal activity Digiatria sanguinalis (inhibition level) (Digiatria sanguinalis): D (50 ≦ D < 60%)
- Herbicidal activity Chenopodium album (inhibition level) (Chenopodium album): C (60 ≦ C < 80%)
- Herbicidal activity Amaranthus retroflexus (inhibition level) (Amaranthus retroflexus): D (50 ≦ D < 60%)
- Herbicidal activity Setaria viridis (inhibition level) (Setaria viridis): B (80 ≦ B < 90%)
- Herbicidal activity Echinochloa crusgalli (inhibition level) (Echinochloa crusgalli): B (80 ≦ B < 90%)

SMILES: Cc1nn(-c2cc3nc(SCc4coc5ccccc5c4=O)sc3cc2Br)c(=O)n1C(F)F [Compound 28]
- Herbicidal activity Brassica juncea (inhibition level) (Brassica juncea): A (90 ≦ A ≦ 100%)
- Herbicidal activity Digiatria sanguinalis (inhibition level) (Digiatria sanguinalis): B (80 ≦ B < 90%)
- Herbicidal activity Chenopodium album (inhibition level) (Chenopodium album): C (60 ≦ C < 80%)
- Herbicidal activity Amaranthus retroflexus (inhibition level) (Amaranthus retroflexus): C (60 ≦ C < 80%)
- Herbicidal activity Setaria viridis (inhibition level) (Setaria viridis): D (50 ≦ D < 60%)
- Herbicidal activity Echinochloa crusgalli (inhibition level) (Echinochloa crusgalli): B (80 ≦ B < 90%)

SMILES: Cc1nn(-c2cc3nc(SCc4ccco4)sc3cc2F)c(=O)n1C(F)F [Compound 29]
- Herbicidal activity Brassica juncea (inhibition level) (Brassica juncea): C (60 ≦ C < 80%)
- Herbicidal activity Digiatria sanguinalis (inhibition level) (Digiatria sanguinalis): B (80 ≦ B < 90%)
- Herbicidal activity Chenopodium album (inhibition level) (Chenopodium album): B (80 ≦ B < 90%)
- Herbicidal activity Amaranthus retroflexus (inhibition level) (Amaranthus retroflexus): C (60 ≦ C < 80%)
- Herbicidal activity Setaria viridis (inhibition level) (Setaria viridis): B (80 ≦ B < 90%)
- Herbicidal activity Echinochloa crusgalli (inhibition level) (Echinochloa crusgalli): C (60 ≦ C < 80%)

SMILES: Cc1nn(-c2cc3nc(SCc4ccccc4)sc3cc2F)c(=O)n1C [Compound 30]
- Herbicidal activity Brassica juncea (inhibition level) (Brassica juncea): D (50 ≦ D < 60%)
- Herbicidal activity Digiatria sanguinalis (inhibition level) (Digiatria sanguinalis): B (80 ≦ B < 90%)
- Herbicidal activity Chenopodium album (inhibition level) (Chenopodium album): C (60 ≦ C < 80%)
- Herbicidal activity Amaranthus retroflexus (inhibition level) (Amaranthus retroflexus): A (90 ≦ A ≦ 100%)
- Herbicidal activity Setaria viridis (inhibition level) (Setaria viridis): B (80 ≦ B < 90%)
- Herbicidal activity Echinochloa crusgalli (inhibition level) (Echinochloa crusgalli): E (E < 50%)

SMILES: CSc1nc2cc(-n3nc(C)n(C)c3=O)c(F)cc2s1 [Compound 31]
- Herbicidal activity Brassica juncea (inhibition level) (Brassica juncea): B (80 ≦ B < 90%)
- Herbicidal activity Digiatria sanguinalis (inhibition level) (Digiatria sanguinalis): A (90 ≦ A ≦ 100%)
- Herbicidal activity Chenopodium album (inhibition level) (Chenopodium album): C (60 ≦ C < 80%)
- Herbicidal activity Amaranthus retroflexus (inhibition level) (Amaranthus retroflexus): A (90 ≦ A ≦ 100%)
- Herbicidal activity Setaria viridis (inhibition level) (Setaria viridis): B (80 ≦ B < 90%)
- Herbicidal activity Echinochloa crusgalli (inhibition level) (Echinochloa crusgalli): B (80 ≦ B < 90%)

SMILES: Cc1nn(-c2cc3nc(SCc4cccc(Cl)c4)sc3cc2F)c(=O)n1C [Compound 32]
- Herbicidal activity Brassica juncea (inhibition level) (Brassica juncea): B (80 ≦ B < 90%)
- Herbicidal activity Digiatria sanguinalis (inhibition level) (Digiatria sanguinalis): A (90 ≦ A ≦ 100%)
- Herbicidal activity Chenopodium album (inhibition level) (Chenopodium album): A (90 ≦ A ≦ 100%)
- Herbicidal activity Amaranthus retroflexus (inhibition level) (Amaranthus retroflexus): A (90 ≦ A ≦ 100%)
- Herbicidal activity Setaria viridis (inhibition level) (Setaria viridis): C (60 ≦ C < 80%)
- Herbicidal activity Echinochloa crusgalli (inhibition level) (Echinochloa crusgalli): B (80 ≦ B < 90%)

SMILES: CCCSc1nc2cc(-n3nc(C)n(C)c3=O)c(F)cc2s1 [Compound 33]
- Herbicidal activity Brassica juncea (inhibition level) (Brassica juncea): A (90 ≦ A ≦ 100%)
- Herbicidal activity Digiatria sanguinalis (inhibition level) (Digiatria sanguinalis): A (90 ≦ A ≦ 100%)
- Herbicidal activity Chenopodium album (inhibition level) (Chenopodium album): B (80 ≦ B < 90%)
- Herbicidal activity Amaranthus retroflexus (inhibition level) (Amaranthus retroflexus): A (90 ≦ A ≦ 100%)
- Herbicidal activity Setaria viridis (inhibition level) (Setaria viridis): B (80 ≦ B < 90%)
- Herbicidal activity Echinochloa crusgalli (inhibition level) (Echinochloa crusgalli): B (80 ≦ B < 90%)

SMILES: Cc1nn(-c2cc3nc(S(=O)(=O)Cc4ccccc4)sc3cc2F)c(=O)n1C [Compound 34]
- Herbicidal activity Brassica juncea (inhibition level) (Brassica juncea): D (50 ≦ D < 60%)
- Herbicidal activity Digiatria sanguinalis (inhibition level) (Digiatria sanguinalis): A (90 ≦ A ≦ 100%)
- Herbicidal activity Chenopodium album (inhibition level) (Chenopodium album): C (60 ≦ C < 80%)
- Herbicidal activity Amaranthus retroflexus (inhibition level) (Amaranthus retroflexus): B (80 ≦ B < 90%)
- Herbicidal activity Setaria viridis (inhibition level) (Setaria viridis): A (90 ≦ A ≦ 100%)
- Herbicidal activity Echinochloa crusgalli (inhibition level) (Echinochloa crusgalli): B (80 ≦ B < 90%)

SMILES: Cc1nn(-c2cc3nc(S(C)(=O)=O)sc3cc2F)c(=O)n1C [Compound 35]
- Herbicidal activity Brassica juncea (inhibition level) (Brassica juncea): D (50 ≦ D < 60%)
- Herbicidal activity Digiatria sanguinalis (inhibition level) (Digiatria sanguinalis): A (90 ≦ A ≦ 100%)
- Herbicidal activity Chenopodium album (inhibition level) (Chenopodium album): C (60 ≦ C < 80%)
- Herbicidal activity Amaranthus retroflexus (inhibition level) (Amaranthus retroflexus): B (80 ≦ B < 90%)
- Herbicidal activity Setaria viridis (inhibition level) (Setaria viridis): A (90 ≦ A ≦ 100%)
- Herbicidal activity Echinochloa crusgalli (inhibition level) (Echinochloa crusgalli): C (60 ≦ C < 80%)
